Measurements as given in BindingDB's records for doi:10.1021/jm020355o (University of Arizona, 2003).

Assay: Antagonistic activity towards Melanocortin 1 receptor in Xenopus frog skin using competitive binding in the presence of 500 pM of alpha-melanocyte stimulating hormone

## CC(C)[C@H](NC(=O)[C@@H]1CCC(=O)N2CCC[C@H]2C(=O)N[C@H](Cc2ccc3ccccc3c2)C(=O)N[C@@H](CCCN=C(N)N)C(=O)N[C@@H](Cc2c[nH]c3ccccc23)C(=O)N1)C(=O)N[C@H](C(=O)NCC(N)=O)C(C)C [c[Pro-D-Nal(2')-Arg-Trp-Glu]-Val-Val-Gly-NH2]
  IC50: 1.5 µM

## CC(C)[C@H](NC(=O)[C@@H]1CCC(=O)NCC(=O)N2CCC[C@H]2C(=O)N[C@H](Cc2ccccc2)C(=O)N[C@@H](CCCN=C(N)N)C(=O)N[C@@H](Cc2c[nH]c3ccccc23)C(=O)N1)C(=O)N[C@H](C(=O)NCC(N)=O)C(C)C [19-Benzyl-16-(3-guanidino-propyl)-13-(1H-indol-3-ylmethyl)-4,7,12,15,18,21-hexaoxo-docosahydro-3a,6,11,14,17,20-hexaaza-cyclopentacycloicosene-10-carboxylic acid {1-[1-(carbamoylmethyl-carbamoyl)-2-methyl-propylcarbamoyl]-2-methyl-propyl}-amide]
  IC50: 10 µM

## CC(C)[C@H](NC(=O)[C@@H]1CCC(=O)NCC(=O)N2CCC[C@H]2C(=O)N[C@H](Cc2ccc3ccccc3c2)C(=O)N[C@@H](CCCN=C(N)N)C(=O)N[C@@H](Cc2c[nH]c3ccccc23)C(=O)N1)C(=O)N[C@H](C(=O)NCC(N)=O)C(C)C [c[Gly-Pro-D-Nal(2')-Arg-Trp-Glu]-Val-Val-Gly-NH2]
  IC50: 0.637 µM
